Data reported in patent US8802686B2, “Sulfone-substituted anilinopyrimidine derivatives as CDK inhibitors, the production thereof, and use as a medicine” (Bayer Intellectual Property GmbH, priority 2008, dated 2014).
Where two headings read alike, the source gives them in different places.

Legend:
CDK1/CycB = CDK1/CycB (Homo sapiens (Human), UniProt P06493); test: CDK1/CycB kinase assay (Assay 1); assay type: biochemical; details: read-out: CDK1/CycB (Assay 1) Concentration of the half-maximal inhibition of the enzyme activity, IC50
CDK1/CycB, sequence (P06493 whole entry): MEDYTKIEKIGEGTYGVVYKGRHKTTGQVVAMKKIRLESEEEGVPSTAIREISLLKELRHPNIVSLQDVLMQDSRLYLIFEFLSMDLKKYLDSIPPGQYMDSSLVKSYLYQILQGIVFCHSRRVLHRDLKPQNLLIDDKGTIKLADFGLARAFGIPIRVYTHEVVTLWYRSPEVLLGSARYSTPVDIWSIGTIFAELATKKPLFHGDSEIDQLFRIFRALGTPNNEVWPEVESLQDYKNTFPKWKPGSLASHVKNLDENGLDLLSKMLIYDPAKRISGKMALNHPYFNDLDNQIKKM
CDK1/CycB, sequence (P14635 whole entry partner): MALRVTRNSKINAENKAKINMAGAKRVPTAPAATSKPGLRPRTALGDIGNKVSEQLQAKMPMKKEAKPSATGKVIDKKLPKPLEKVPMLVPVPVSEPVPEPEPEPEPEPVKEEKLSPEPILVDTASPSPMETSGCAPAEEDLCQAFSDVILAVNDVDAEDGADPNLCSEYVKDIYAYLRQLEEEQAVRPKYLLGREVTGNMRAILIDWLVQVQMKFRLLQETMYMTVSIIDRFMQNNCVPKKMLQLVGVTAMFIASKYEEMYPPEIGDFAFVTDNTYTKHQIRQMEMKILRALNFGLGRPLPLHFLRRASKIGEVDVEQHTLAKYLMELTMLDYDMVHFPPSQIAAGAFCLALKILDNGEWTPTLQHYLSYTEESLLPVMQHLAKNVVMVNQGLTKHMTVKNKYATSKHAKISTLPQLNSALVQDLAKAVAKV
Procedure: CDK1/CycB (200 ng/measuring point) was incubated for 10 min at 22° C. in the presence of different concentrations of test substances (0 and within the range 0.001-10 μM) in assay buffer [50 mM Tris/HCl pH 8.0; 10 mM MgCl2; 0.1 mM Na ortho-vanadate; 1.0 mM dithiothreitol; 0.5 μM adenosine trisphosphate (ATP); 10 μg/measuring point histone IIIS; 0.2 μCi/measuring point ^33P-gamma ATP; 0.05% NP40; 1.25% dimethyl sulphoxide]. The reaction was stopped by adding EDTA solution (250 mM; pH 8.0; 15 μl/measuring point).
From each reaction mixture, 15 μl were applied to P30 filter strips (Wallac), and unincorporated ^33P-ATP was removed by washing the filter strips three times, for 10 min in each case, in 0.5% phosphoric acid. After drying the filter strips for 1 hour at 70°, the filter strips were covered with scintillator strips (MeltiLex™ A, Wallac) and stoved for 1 hour at 90° C. The amount of incorporated ^33P (substrate phosphorylation) was determined by scintillation measurement in a gamma-radiation measuring instrument (Wallac). […] The IC50 values were determined by means of a 4-parameter fit using the company's own software.

CDK2/CycE = CDK2/CycE (Homo sapiens (Human), UniProt P24941); test: CDK2/CycE kinase assay (Assay 2); assay type: biochemical; details: read-out: CDK2/CycE (Assay 2) Concentration of the half-maximal inhibition of the enzyme activity, IC50
Procedure: Recombinant CDK2 and CycE-GST fusion proteins, purified from baculovirus-infected insect cells (Sf9), were purchased from ProQinase GmbH, Freiburg. Histone IIIS, which was used as kinase substrate, was purchased from Sigma.
CDK2/CycE (50 mg/measuring point) was incubated for 10 min at 22° C. in the presence of different concentrations of test substances (0 μM, and within the range 0.001-10 μM) in assay buffer [50 mM Tris/HCl pH 8.0; 10 mM MgCl2; 0.1 mM Na ortho-vanadate; 1.0 mM dithiothreitol; 0.5 μM adenosine trisphosphate (ATP); 10 μg/measuring point histone IIIS; 0.2 μCi/measuring point ^33P-gamma ATP; 0.05% NP40; 1.25% dimethyl sulphoxide]. The reaction was stopped by adding EDTA solution (250 mM; pH 8.0; 15 μl/measuring point).
(§2) From each reaction mixture, 15 μl were applied to P30 filter strips (Wallac), and unincorporated ^33P-ATP was removed by washing the filter strips three times, for 10 min in each case, in 0.5% phosphoric acid. After drying the filter strips for 1 hour at 70° C., the filter strips were covered with scintillator strips (MeltiLex™ A, Wallac) and stoved for 1 hour at 90° C. The amount of incorporated ^33P (substrate phosphorylation) was determined by scintillation measurement in a gamma-radiation measuring instrument (Wallac). […] The IC50 values were determined by means of a 4-parameter fit using the company's own software.

CDK4/CycD1 = CDK4/CycD1 (Homo sapiens (Human), UniProt P11802); test: CDK4/CycD kinase assay (Assay 3); assay type: biochemical; details: read-out: CDK4/CycD (Assay 3) Concentration of the half-maximal inhibition of the enzyme activity, IC50
CDK4/CycD1, sequence (P11802 whole entry, the tested form may be a part): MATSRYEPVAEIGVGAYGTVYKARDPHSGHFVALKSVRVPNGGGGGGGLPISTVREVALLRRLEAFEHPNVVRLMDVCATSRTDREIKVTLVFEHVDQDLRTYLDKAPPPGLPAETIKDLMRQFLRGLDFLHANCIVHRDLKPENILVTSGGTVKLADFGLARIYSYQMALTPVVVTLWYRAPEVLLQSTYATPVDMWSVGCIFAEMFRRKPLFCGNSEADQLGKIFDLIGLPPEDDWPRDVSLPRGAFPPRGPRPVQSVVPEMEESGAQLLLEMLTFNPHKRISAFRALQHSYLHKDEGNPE
CDK4/CycD1, sequence (P24385 whole entry partner, the tested form may be a part): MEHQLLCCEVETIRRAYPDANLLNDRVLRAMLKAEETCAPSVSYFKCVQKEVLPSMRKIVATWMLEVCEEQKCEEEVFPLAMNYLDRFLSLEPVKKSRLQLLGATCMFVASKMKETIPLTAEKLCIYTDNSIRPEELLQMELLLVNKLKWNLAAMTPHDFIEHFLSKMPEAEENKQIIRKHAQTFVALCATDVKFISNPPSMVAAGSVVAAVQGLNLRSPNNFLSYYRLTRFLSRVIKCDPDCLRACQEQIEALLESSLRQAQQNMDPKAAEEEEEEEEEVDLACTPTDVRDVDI
Procedure: Recombinant CDK4 and CycD1-GST fusion proteins, purified from baculovirus-infected insect cells (Sf9), were purchased from ProQinase GmbH, Freiburg. CDK4/CycD1 (250 ng/measuring point) was incubated for 3 hours at 22° C. in the presence of different concentrations of test substances (0 μM, and within the range 0.001-10 μM) in 31 μl of assay buffer [50 mM Hepes pH 7.0; 2.5 mM MnCl; 0.05 mM Na ortho-vanadate; 1.0 mM dithiothreitol; 0.25 μM adenosine trisphosphate (ATP); 0.5 μM biotinylated myelin basic protein (bio-MPB, GE Healthcare); 0.05 μCi/measuring point ^33P-gamma ATP; 0.005% NP40; 0.025% bovine serum albumin; 3% dimethyl sulphoxide]. The reaction was stopped by adding 50 μl of stop-mix [100 μM ATP; 10 mM EDTA pH 8.0; 0.2% Triton X100; 0.125 mg of streptavidin-SPA Beads (GE Healthcare)]. After incubation for 10 min at room temperature, the SPA beads were pelleted by centrifugation (10 min; 1500 g). The amount of incorporated ^33P (substrate phosphorylation) was determined by scintillation measurement in a beta-radiation measuring instrument (Microbeta, Perkin Elmer).

[1] = target: VEGF receptor tyrosine kinase-2 (VEGF-R2) (Homo sapiens (Human), UniProt P35968); test: VEGF receptor-2 kinase assay (Assay 4); assay type: biochemical; details: read-out: VEGF-R2 (Assay 4) Concentration of the half-maximal inhibition of the enzyme activity, IC50
VEGF receptor tyrosine kinase-2 (VEGF-R2), sequence (P35968 20-1356, species assumed): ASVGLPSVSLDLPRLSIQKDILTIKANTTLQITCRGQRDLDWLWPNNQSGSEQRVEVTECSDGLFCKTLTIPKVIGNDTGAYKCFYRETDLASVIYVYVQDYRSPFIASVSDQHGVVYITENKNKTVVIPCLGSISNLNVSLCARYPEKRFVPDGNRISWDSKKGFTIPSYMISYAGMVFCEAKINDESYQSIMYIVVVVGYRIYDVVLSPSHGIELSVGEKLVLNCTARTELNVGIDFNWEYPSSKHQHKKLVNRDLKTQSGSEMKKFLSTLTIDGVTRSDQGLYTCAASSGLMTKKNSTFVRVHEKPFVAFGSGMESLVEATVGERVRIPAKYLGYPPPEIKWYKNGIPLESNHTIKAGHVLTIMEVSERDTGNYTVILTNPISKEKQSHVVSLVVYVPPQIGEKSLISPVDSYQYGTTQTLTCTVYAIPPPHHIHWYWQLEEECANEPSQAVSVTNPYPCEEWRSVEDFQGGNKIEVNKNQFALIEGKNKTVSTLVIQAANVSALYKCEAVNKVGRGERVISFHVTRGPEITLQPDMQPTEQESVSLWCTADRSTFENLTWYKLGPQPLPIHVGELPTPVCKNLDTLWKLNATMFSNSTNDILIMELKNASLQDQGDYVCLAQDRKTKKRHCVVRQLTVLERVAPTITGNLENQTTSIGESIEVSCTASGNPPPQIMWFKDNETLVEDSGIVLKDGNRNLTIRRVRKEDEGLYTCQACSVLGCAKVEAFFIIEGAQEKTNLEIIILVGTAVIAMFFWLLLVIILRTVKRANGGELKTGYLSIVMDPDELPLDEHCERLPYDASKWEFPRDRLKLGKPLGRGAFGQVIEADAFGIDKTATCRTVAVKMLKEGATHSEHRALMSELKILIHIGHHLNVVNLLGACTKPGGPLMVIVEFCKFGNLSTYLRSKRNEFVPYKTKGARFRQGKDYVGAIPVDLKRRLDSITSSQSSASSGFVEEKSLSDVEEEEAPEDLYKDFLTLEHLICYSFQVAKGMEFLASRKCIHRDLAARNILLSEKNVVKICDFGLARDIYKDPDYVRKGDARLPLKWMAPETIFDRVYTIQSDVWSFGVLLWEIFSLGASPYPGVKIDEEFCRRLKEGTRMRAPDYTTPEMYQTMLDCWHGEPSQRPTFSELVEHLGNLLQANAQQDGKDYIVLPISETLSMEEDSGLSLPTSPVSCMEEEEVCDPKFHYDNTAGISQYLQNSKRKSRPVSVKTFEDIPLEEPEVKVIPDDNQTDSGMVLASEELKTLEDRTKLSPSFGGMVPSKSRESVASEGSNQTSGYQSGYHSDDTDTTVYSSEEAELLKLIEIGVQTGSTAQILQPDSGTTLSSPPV
Procedure: Recombinant VEGF receptor tyrosine kinase-2 was purified as GST fusion protein from baculovirus-infected insect cells (Sf9). Poly-(Glu4Tyr), which was used as kinase substrate, was purchased from Sigma.
VEGF receptor tyrosine kinase (90 ng/measuring point) was incubated for 10 min at 22° C. in the presence of different concentrations of test substances (0 μM, and within the range 0.001-10 μM) in 30 μl of assay buffer [40 mM Tris/HCl pH 5.5; 10 mM MgCl2; 1 mM MnCl2; 3 μM Na ortho-vanadate; 1.0 mM dithiothreitol; 8 μM adenosine trisphosphate (ATP); 0.96 μg/measuring point poly-(Glu4Tyr); 0.2 μCi/measuring point ^33P-gamma ATP; 1.4% dimethyl sulphoxide]. The reaction was stopped by adding EDTA solution (250 mM; pH 8.0; 15 μl/measuring point).
as §2

[2] = system: HeLa-MaTu-ADR (HeLa-MaTu-MDR, multiple drug-resistant human cervix carcinoma cells); test: Proliferation assay (Assay 5), HeLa-MaTu-ADR; assay type: cell-based; details: 96 h, HeLa-MaTu-ADR, 4 days, read-out: Concentration of the half-maximal inhibition of the cell proliferation, IC50
Text: (§1) Cultivated human tumour cells (MCF7, hormone-independent human breast carcinoma cells, acquired from ATCC HTB22; NCI-H460, human non-small-cell lung carcinoma cells, ATCC HTB-177; DU 145, hormone-independent human prostrate carcinoma cells, ATCC HTB-81; HeLa-MaTu, human cervix carcinoma cells, EPO-GmbH, Berlin; HeLa-MaTu-MDR, multiple drug-resistant human cervix carcinoma cells, EPO-GmbH, Berlin; Caco-2, human colon carcinoma cells, ATCC HTB-37; B16F10, murine melanoma cell, ATCC CRL-6475) were plated out at a density of ca. 1000-5000 cells/measuring point, depending on the growth rate of the particular cells, in a 96-well multititre plate in 200 μl of the corresponding growth medium. After 24 hours, the cells of one plate (zero-point plate) were stained with crystal violet (see below), whereas the medium of the other plates was replaced with fresh culture medium (200 μl), to which the test substances had been added at different concentrations (0 μM, and in the range 0.003-3 μM; the final concentration of the solvent dimethyl sulphoxide was 0.5%). The cells were incubated for 4 days in the presence of the test substances. Cell proliferation was determined by staining the cells with crystal violet: the cells were fixed by adding 20 μl/measuring point of an 11% glutaraldehyde solution for 15 min at room temperature. After washing the fixed cells with water three times, the plates were dried at room temperature. The cells were stained by adding 100 μl/measuring point of a 0.1% crystal violet solution (pH adjusted to pH 3 by adding acetic acid). After washing the stained cells with water three times, the plates were dried at room temperature. The dye was dissolved by adding 100 μl/measuring point of a 10% acetic acid solution. The extinction was determined photometrically at a wavelength of 595 nm. […] The IC50 values were determined by means of a 4-parameter fit using the company's own software.

[3] = system: MCF7, hormone-independent human breast carcinoma cells; test: Proliferation assay (Assay 5), MCF7; assay type: cell-based; details: read-out: Concentration of the half-maximal inhibition of the cell proliferation, IC50
Text: as §1

[4] = system: NCI-H460, human non-small-cell lung carcinoma cells; test: Proliferation assay (Assay 5), NCI-H460; assay type: cell-based; details: 96 h, NCI-H460, 4 days, read-out: Concentration of the half-maximal inhibition of the cell proliferation, IC50
Text: as §1

[5] = system: DU 145, hormone-independent human prostrate carcinoma cells; test: Proliferation assay (Assay 5), DU145; assay type: cell-based; details: DU-145, 96 h, DU145, 4 days, read-out: Concentration of the half-maximal inhibition of the cell proliferation, IC50
Text: as §1

[6] = system: Caco-2, human colon carcinoma cells; test: Proliferation assay (Assay 5), Caco-2; assay type: cell-based; details: 96 h, Caco-2, 4 days, read-out: Concentration of the half-maximal inhibition of the cell proliferation, IC50
Text: as §1

[7] = system: B16F10, murine melanoma cell; test: Proliferation assay (Assay 5), B16F10; assay type: cell-based; details: Mus musculus, B16-F10, 96 h; B16F10, 4 days; read-out: Concentration of the half-maximal inhibition of the cell proliferation, IC50
Text: as §1

[8] = Permeability assay (Assay 6), Caco-2 monolayer; assay type: in vitro ADME; details: human
Procedure: The Caco-2 monolayer is a barrier between 2 compartments. The cells here behave similarly to the small intestine cells. Active ingredients can be transported either paracellularly or transcellularly. Here, the transport takes place in most cases from apical (luminal) to basolateral (serosal). In the case of p-glycoprotein substrates, back-transport from basolateral to apical is also usually observed.
Experimental procedure: The permeability test is carried out both from apical to basolateral and also from basolateral to apical. For this, two filters are used per substance; incubation takes place over 90 min at 37° C. in a water bath. […] As reference substances, (i) PEG 4000 are used as hydrophilic marker. On account of its high molecular weight, it is unable to permeate into the cell membrane or into the pores of the tight junctions. PEG 4000 is therefore a marker of the intactness of the cell monolayer and the narrowness of the tight junctions. PEG 4000 is not absorbed in humans. (ii) Clonidine is known as completely absorbed substances in people (100%). They serve as markers for very highly permeable substances with Papp values above 100 nm/s. (iii) Digoxin is a known Pgp substrate. […] In the reverse experiment (basolateral to apical), the Papp values should be higher by a factor of about 10 as a result of the active directional transport into the apical compartment.
The permeation coefficient Papp is used to estimate the absorption in people according to the following scheme: […]

SMILES | IC50 (CDK1/CycB) [µM] | IC50 (CDK2/CycE) [µM] | IC50 ([3]; 96 h, MCF7, 4 days) [µM] | other results
C[C@@H](O)[C@@H](C)Nc1nc(Nc2ccc(S(=O)(=O)C3CC3)cc2)ncc1C(F)(F)F [C1, (2R,3R)-3-[2-(4-Cyclopropanesulphonylphenylamino)-5-trifluoromethylpyrimidin-4-ylamino]butan-2-ol, reference compound] | 0.008 | 0.006 | 0.065 | IC50 (CDK4/CycD1): 0.052 µM; IC50 [1]: 0.051 µM; IC50 [2]: 0.026 µM; IC50 [4]: 0.037 µM; IC50 [5]: 0.046 µM; IC50 [6]: 0.063 µM; IC50 [7]: 0.078 µM; efflux ratio at 90 min ([8]; Caco-2, read-out: ratio (b-a)/(a-b)): 0.8; Papp A→B at 90 min ([8]; Caco-2, 90 min, 37° C., read-out: Permeation coefficient, Papp apical-basolateral (a-b)): 207 nm/s; Papp B→A at 90 min ([8]; Caco-2, 90 min, 37° C., read-out: Permeation coefficient, Papp basolateral-apical (b-a)): 174 nm/s
C[C@@H](Nc1nc(Nc2ccc(S(C)(=O)=O)cc2)ncc1C(F)(F)F)C(C)(C)O [C3, (R)-3-[2-(4-Methanesulphonylphenylamino) 5-trifluoro-methylpyrimidin-4-ylamino]-2-methylbutan-2-ol, reference compound] | 0.009 | 0.008 | 0.061 | IC50 (CDK4/CycD1): 0.024 µM; IC50 [1]: 0.19 µM; IC50 [2]: 0.037 µM; IC50 [4]: 0.093 µM; IC50 [5]: 0.06 µM; IC50 [6]: 0.133 µM; IC50 [7]: 0.106 µM
C[C@@H](Oc1nc(Nc2ccc(S(=O)(=O)C3CC3)cc2)ncc1C(F)(F)F)C(C)(C)O [Example 4, (R)-3-[2-(4-Cyclopropanesulphonylphenylamino)-5-tri-fluoromethylpyrimidin-4-yloxy]-2-methylbutan-2-ol] | 0.036 | 0.021 | 0.105 | IC50 [2]: 0.142 µM; IC50 [4]: 0.226 µM; IC50 [5]: 0.194 µM; IC50 [6]: 0.205 µM; IC50 [7]: 0.287 µM
CC(C)S(=O)(=O)c1ccc(Nc2ncc(C(F)(F)F)c(O[C@H](C)[C@@H](C)O)n2)cc1 [Example 9, (2R,3R)-3-{2-[4-(Propane-2-sulphonyl)phenylamino]-5-trifluoromethylpyrimidin-4-yloxy}butan-2-ol] | 0.012 | 0.006 |  | 
C#CCS(=O)(=O)c1ccc(Nc2ncc(C(F)(F)F)c(O[C@H](C)C(C)(C)O)n2)cc1 [Example 10, (R)-2-Methyl-3-{2-[4-(prop-2-yne-1-sulphonyl)phenylamino]-5-trifluoromethylpyrimidin-4-yloxy}butan-2-ol] | 0.082 | 0.043 |  | 
C[C@@H](O)[C@@H](C)Oc1nc(Nc2ccc(S(=O)(=O)CCO)cc2)ncc1C(F)(F)F [Example 11, (2R,3R)-3-{2-[4-(2-Hydroxyethanesulphonyl)phenylamino]-5-trifluoromethylpyrimidin-4-yloxy}butan-2-ol] | 0.003 | 0.003 |  | 
C#CCOc1nc(Nc2ccc(S(C)(=O)=O)cc2)ncc1C(F)(F)F [Example 13, (4-Methanesulphonylphenyl)(4-prop-2-ynyloxy-5-trifluoromethylpyrimidin-2-yl)amine] | 0.13 | 0.025 |  | IC50 ([3]; MCF7, 96 h): 0.74 µM
CS(=O)(=O)c1ccc(Nc2ncc(C(F)(F)F)c(OCCC(F)(F)F)n2)cc1 [Example 14, (4-Methanesulphonylphenyl)[5-trifluoromethyl-4-(3,3,3-trifluoropropoxy)pyrimidin-2-yl]amine] | 0.74 | 0.094 |  | IC50 ([3]; MCF7, 96 h): 2.2 µM
CS(=O)(=O)c1ccc(Nc2ncc(C(F)(F)F)c(OC3CCCCC3)n2)cc1 [Example 16, (4-Cyclohexyloxy-5-trifluoromethylpyrimidin-2-yl)(4-methanesulphonylphenyl)amine] | > 1 | 0.48 | 1.4 | 

The remaining compounds from weak to strong by IC50 (CDK1/CycB), led by results:

IC50 (CDK1/CycB) [µM] | IC50 (CDK2/CycE) [µM] | IC50 ([3]; 96 h, MCF7, 4 days) [µM] | SMILES | other results
0.28 | 0.049 | 1.5 | C=CCOc1nc(Nc2ccc(S(C)(=O)=O)cc2)ncc1C(F)(F)F [Example 15, (4-Allyloxy-5-trifluoromethylpyrimidin-2-yl)(4-methane-sulphonylphenyl)amine] | 
0.051 | 0.012 | 0.191 | COC[C@@H](C)Oc1nc(Nc2ccc(S(C)(=O)=O)cc2)ncc1C(F)(F)F [Example 12, (4-Methanesulphonylphenyl) [4-((R)-2-methoxy-1-methyl-ethoxy)-5-trifluoromethylpyrimidin-2-yl]amine] | 
0.043 | 0.011 |  | C=CCS(=O)(=O)c1ccc(Nc2ncc(C(F)(F)F)c(O[C@H](C)C(C)(C)O)n2)cc1 [Example 8, (R)-2-Methyl-3-{2-[4-(prop-2-ene-1-sulphonyl)phenylamino]-5-trifluoromethylpyrimidin-4-yl-oxy}butan-2-ol] | 
0.041 | 0.036 |  | C[C@@H](O)[C@@H](C)Oc1nc(Nc2ccc(S(=O)(=O)c3ccccc3)cc2)ncc1C(F)(F)F [Example 5, (2R,3R)-3-[2-(4-Benzenesulphonylphenylamino)-5-tri-fluoromethylpyrimidin-4-yloxy]butan-2-ol] | 
0.024 | 0.012 |  | C[C@@H](O)[C@@H](C)Oc1nc(Nc2ccc(S(=O)(=O)C(F)F)cc2)ncc1C(F)(F)F [Example 6, (2R,3R)-3-{2-[4-(Difluoromethanesulphonyl)phenylamino]-5-trifluoromethylpyrimidin-4-yloxy}butan-2-ol] | 
0.023 | 0.021 |  | C[C@@H](O)[C@@H](C)Oc1nc(Nc2ccc(S(=O)(=O)C3CCCC3)cc2)ncc1C(F)(F)F [Example 7, (2R,3R)-3-[2-(4-Cyclopentanesulphonylphenylamino)-5-triluoromethylpyrimidin-4-yloxy]butan-2-ol] | 
